Assays:
Assay type in all cases: biochemical
human JAK1 = target: T1, human JAK1 (Homo sapiens, UniProt P23458); assay: JAK1 inhibition assay (polyGT substrate / Ulight-JAK1 peptide); conditions: recombinant human JAK1 catalytic domain; polyGT or Ulight-JAK1 peptide assay
T1 construct: catalytic domain, amino acids 866-1154; catalog number PV4774; purchased Invitrogen PV4774
Method in brief: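 Two formats. PolyGT radiometric: 45 min at 30 °C, stopped with phosphoric acid, counted as cpm. Ulight-JAK1 peptide: 60 min at room temperature, stopped with Eu-anti-phosphotyrosine/EDTA, read as RFU. Percent inhibition normalised to vehicle and 10 μM staurosporine.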

human JAK2 = target: T2, human JAK2 (Homo sapiens, UniProt O60674); assay: JAK2 inhibition assay (polyGT substrate / Ulight-JAK1 peptide); conditions: recombinant human JAK2 catalytic domain; polyGT or Ulight-JAK1 peptide assay
T2 construct: catalytic domain (amino acids 808-1132; catalog number PV4210); GST; purchased Invitrogen PV4210
Method in brief: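 Radiometric: 0.025 mU JAK2 with 2.5 μg polyGT, 1 μM ATP plus ^33P-ATP in MOPS pH 7.5 buffer, 1% DMSO, 90 min at 30° C.; filter counting. Alternative TR-FRET format with Ulight-JAK1 peptide, 60 min at room temperature, Eu-anti-phosphotyrosine detection.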

human TYK2 = target: T3, human TYK2 (Homo sapiens, UniProt P29597); assay: TYK2 inhibition assay; conditions: recombinant human TYK2 catalytic domain, polyGT substrate
T3 construct: catalytic domain (amino acids 871-1187; catalog number 08-147); purchased Carna Biosciences 08-147
T3 sequence (P29597 871-1187): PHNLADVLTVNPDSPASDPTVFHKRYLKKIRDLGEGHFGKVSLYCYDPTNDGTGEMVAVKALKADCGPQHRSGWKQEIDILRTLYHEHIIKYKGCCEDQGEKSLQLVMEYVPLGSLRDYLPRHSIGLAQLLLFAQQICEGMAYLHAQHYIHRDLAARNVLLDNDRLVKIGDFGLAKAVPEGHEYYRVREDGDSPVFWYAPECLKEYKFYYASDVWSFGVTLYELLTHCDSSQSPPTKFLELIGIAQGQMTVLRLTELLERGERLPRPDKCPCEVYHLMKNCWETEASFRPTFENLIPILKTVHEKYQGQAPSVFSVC
Method in brief: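 Radiometric kinase reaction run 90 min at 30 °C, stopped with phosphoric acid, washed and scintillation-counted.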

T2 sequence (O60674 808-1132): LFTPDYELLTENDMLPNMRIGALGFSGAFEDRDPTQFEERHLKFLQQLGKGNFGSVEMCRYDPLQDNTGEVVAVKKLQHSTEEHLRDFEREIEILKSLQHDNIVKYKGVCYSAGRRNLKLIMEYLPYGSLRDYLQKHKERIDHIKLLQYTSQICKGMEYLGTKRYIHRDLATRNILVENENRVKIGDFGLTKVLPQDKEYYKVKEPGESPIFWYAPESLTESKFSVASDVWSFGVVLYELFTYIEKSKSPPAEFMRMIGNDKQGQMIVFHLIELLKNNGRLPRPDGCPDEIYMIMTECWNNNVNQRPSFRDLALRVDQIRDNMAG
T1 sequence (P23458 866-1154): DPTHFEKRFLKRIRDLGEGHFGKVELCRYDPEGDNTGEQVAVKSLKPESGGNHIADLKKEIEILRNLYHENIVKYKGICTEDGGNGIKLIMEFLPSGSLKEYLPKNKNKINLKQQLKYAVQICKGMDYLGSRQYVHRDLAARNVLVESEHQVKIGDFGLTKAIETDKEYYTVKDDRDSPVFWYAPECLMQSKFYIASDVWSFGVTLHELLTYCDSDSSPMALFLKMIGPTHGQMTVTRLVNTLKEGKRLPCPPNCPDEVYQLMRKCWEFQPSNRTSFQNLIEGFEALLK

Structure (SMILES)	IC50 (human JAK1)	IC50 (human JAK2)	IC50 (human TYK2)
CCc1cc(C(=O)NCCN(C)C)ccc1N(C)c1cc2c(cn1)ncn2C [Compound 119, N-(2-(dimethylamino)ethyl)-3-ethyl-4-(methyl(1-methyl-1H-imidazo[4,5-c]pyridin-6-yl)amino)benzamide]	0.01 to 100 nM	> 1000 nM	> 1000 nM
CCc1cc(C(=O)NCC#N)ccc1N(C)c1cc2c(cn1)ncn2C [Compound 120, N-(cyanomethyl)-3-ethyl-4-(methyl(1-methyl-1H-imidazo[4,5-c]pyridin-6-yl)amino)benzamide]	0.01 to 100 nM	101 to 500 nM	101 to 500 nM
CCc1ccc(C(=O)NC(C)(C)C)cc1N(C)c1cc2c(cn1)ncn2C [Compound 123, N-tert-butyl-4-ethyl-3-(methyl(1-methyl-1H-imidazo[4,5-c]pyridin-6-yl)amino)benzamide]	0.01 to 100 nM	> 1000 nM	> 1000 nM
CCc1cc(-c2ccsc2)ccc1N(C)c1cc2c(cn1)ncn2C [Compound 127, N-(2-ethyl-4-(thiophen-3-yl)phenyl)-N,1-dimethyl-1H-imidazo[4,5-c]pyridin-6-amine]	0.01 to 100 nM	101 to 500 nM	0.01 to 100 nM
CCc1cc(-c2ccc(CNC(=O)OC(C)(C)C)s2)ncc1N(C)c1cc2c(cn1)ncn2C [Compound 302]	0.01 to 100 nM	101 to 500 nM	101 to 500 nM
CCc1cc(-c2ccc(CN)s2)ncc1N(C)c1cc2c(cn1)ncn2C [Compound 303, [6-(5-Aminomethyl-thiophen-2-yl)-4-ethyl-pyridin-3-yl]-methyl-(1-methyl-1H-imidazo[4,5-c]pyridin-6-yl)-amine]	501 to 1000 nM	> 1000 nM	> 1000 nM
CCc1cc(-c2ccc(Cl)s2)ncc1N(C)c1cc2c(cn1)ncn2C [Compound 304, [6-(5-Chloro-thiophen-2-yl)-4-ethyl-pyridin-3-yl]-methyl-(1-methyl-1H-imidazo[4,5-c]pyridin-6-yl)-amine]	0.01 to 100 nM	0.01 to 100 nM	0.01 to 100 nM
CCc1cc(-c2ccc(C)s2)ncc1N(C)c1cc2c(cn1)ncn2C [Compound 311, [4-Ethyl-6-(5-methyl-thiophen-2-yl)-pyridin-3-yl]-methyl-(1-methyl-1H-imidazo[4,5-c]pyridin-6-yl)-amine]	0.01 to 100 nM	0.01 to 100 nM	0.01 to 100 nM
COc1cc(-c2c(C)nn(C)c2C)ncc1N(C)c1cc2c(cn1)ncn2C [Compound 312]	> 1000 nM	> 1000 nM	> 1000 nM
COc1cc(N2CCOCC2)ncc1N(C)c1cc2c(cn1)ncn2C [Compound 313, (4-Methoxy-6-morpholin-4-yl-pyridin-3-yl)-methyl-(1-methyl-1H-imidazo[4,5-c]pyridine-6-yl)-amine]	0.01 to 100 nM	101 to 500 nM	101 to 500 nM
COc1ccc(S(=O)(=O)N2CCCCC2)cc1N(C)c1cc2c(cn1)ncn2C [Compound 314, [2-Methoxy-5-(piperidine-1-sulfonyl)-phenyl]-methyl-(1-methyl-1H-imidazo[4,5-d]pyridin-6-yl)-amine]	> 1000 nM	> 1000 nM	> 1000 nM
COc1cc(S(=O)(=O)N2CCOCC2)ccc1N(C)c1cc2c(cn1)ncn2C [Compound 315, [2-Methoxy-4-(morpholine-4-sulfonyl)-phenyl]-methyl-(1-methyl-1H-imidazo[4,5-d]pyridin-6-yl)-amine]	> 1000 nM	> 1000 nM	> 1000 nM
CCc1cn(CCC#N)nc1N(C)c1cc2c(cn1)ncn2C [Compound 316, 3-{4-Ethyl-3-[methyl-(1-methyl-1H-imidazo[4,5-c]pyridin-6-yl)-amino]-pyrazol-1-yl}-propionitrile]	> 1000 nM	> 1000 nM	> 1000 nM
CCc1cc(C2CN(CC#N)C2)ncc1N(C)c1cc2c(cn1)ncn2C [Compound 331, (3-{4-Ethyl-5-[methyl-(1-methyl-1H-imidazo[4,5-c]pyridin-6-yl)-amino]-pyridin-2-yl}-azetidin-1-yl)-acetonitrile]	0.01 to 100 nM	101 to 500 nM	501 to 1000 nM
CCc1cc(C2CN(C(C)=O)C2)ncc1N(C)c1cc2c(cn1)ncn2C [Compound 332, 1-(3-{4-Ethyl-5-[methyl-(1-methyl-1H-imidazo[4,5-c]pyridin-6-yl)-amino]-pyridin-2-yl}-azetidin-1-yl)-ethanone]	101 to 500 nM	501 to 1000 nM	> 1000 nM
CCc1cc(C2CN(C(=O)C(F)(F)F)C2)ncc1N(C)c1cc2c(cn1)ncn2C [Compound 334, 1-(3-{4-Ethyl-5-[methyl-(1-methyl-1H-imidazo[4,5-c]pyridin-6-yl)-amino]-pyridin-2-yl}-azetidin-1-yl)-2,2,2-trifluoro-ethanone]	0.01 to 100 nM	0.01 to 100 nM	501 to 1000 nM

The remaining lines, values ahead:

IC50 (human JAK1)	IC50 (human JAK2)	IC50 (human TYK2)	Structure (SMILES)
0.01 to 100 nM	0.01 to 100 nM	0.01 to 100 nM	CCc1cc(CN(C)S(C)(=O)=O)c(F)cc1N(C)c1cc2c(cn1)ncn2C [Compound 319, N-{5-Ethyl-2-fluoro-4-[methyl-(1-methyl-1H-imidazo[4,5-c]pyridin-6-yl)-amino]-benzyl}-N-methyl-methanesulfonamide]
0.01 to 100 nM	0.01 to 100 nM	101 to 500 nM	CN(c1cc2c(cn1)ncn2C)c1ccc(CNC(=O)C(F)F)cc1F [Compound 320]
0.01 to 100 nM	101 to 500 nM	101 to 500 nM	CCc1cc(C#N)cc(F)c1N(C)c1cc2c(cn1)ncn2C [Compound 322, 3-Ethyl-5-fluoro-4-[methyl-(1-methyl-M-imidazo[4,5-c]pyridin-6-yl)-amino]-benzonitrile]
0.01 to 100 nM	0.01 to 100 nM	0.01 to 100 nM	CCc1cc(CNS(C)(=O)=O)cc(F)c1N(C)c1cc2c(cn1)ncn2C [Compound 323, N-{3-Ethyl-5-fluoro-4-[methyl-(1-methyl-1H-imidazo[4,5-c]pyridin-6-yl)-amino]-benzyl}-methanesulfonamide]
0.01 to 100 nM	0.01 to 100 nM	0.01 to 100 nM	CCc1cc(CNS(=O)(=O)C(F)F)cc(F)c1N(C)c1cc2c(cn1)ncn2C [Compound 324, N-{3-Ethyl-5-fluoro-4-[methyl-(1-methyl-1H-imidazo[4,5-c]pyridin-6-yl)-amino]-benzyl}-C,C-difluoro-methanesulfonamide]
0.01 to 100 nM	0.01 to 100 nM	101 to 500 nM	CCc1cc(CNS(C)(=O)=O)c(F)cc1N(C)c1cc2c(cn1)ncn2C [Compound 325, N-{5-Ethyl-2-fluoro-4-[methyl-(1-methyl-1H-imidazo[4,5-c]pyridin-6-yl)-amino]-benzyl}-methanesulfonamide]
0.01 to 100 nM	0.01 to 100 nM	101 to 500 nM	CCc1cc(CNC(=O)C(F)F)c(F)cc1N(C)c1cc2c(cn1)ncn2C [Compound 326, N-{5-Ethyl-2-fluoro-4-[methyl-(1-methyl-M-imidazo[4,5-c]pyridin-6-yl)-amino]-benzyl}-2,2-difluoro-acetamide]
0.01 to 100 nM	0.01 to 100 nM	0.01 to 100 nM	CCc1cc(CNS(=O)(=O)C(F)F)c(F)cc1N(C)c1cc2c(cn1)ncn2C [Compound 327, N-{5-Ethyl-2-fluoro-4-[methyl-(1-methyl-M-imidazo[4,5-c]pyridin-6-yl)-amino]-benzyl}-C,C-difluoro-methanesulfonamide]
0.01 to 100 nM	101 to 500 nM	501 to 1000 nM	CCc1cc(C2CN(S(C)(=O)=O)C2)ncc1N(C)c1cc2c(cn1)ncn2C [Compound 328, [4-Ethyl-6-(1-methanesulfonyl-azetidin-3-yl)-pyridin-3-yl]-methyl-(1-methyl-1H-imidazo[4,5-c]pyridin-6-yl)-amine]
0.01 to 100 nM	0.01 to 100 nM	> 1000 nM	CCc1cc(C2CN(S(=O)(=O)C(F)F)C2)ncc1N(C)c1cc2c(cn1)ncn2C [Compound 329, {6-[1-(Difluoro-methanesulfonyl)-azetidin-3-yl]-4-ethyl-pyridin-3-yl}-methyl-(1-methyl-1H-imidazo[4,5-c]pyridin-6-yl)-amine]
0.01 to 100 nM	101 to 500 nM	> 1000 nM	CCc1cc(C2CN(S(=O)(=O)C(C)C)C2)ncc1N(C)c1cc2c(cn1)ncn2C [Compound 330, {4-Ethyl-6-[1-(propane-2-sulfonyl)-azetidin-3-yl]-pyridin-3-yl}-methyl-(1-methyl-1H-imidazo[4,5-c]pyridin-6-yl)-amine]
0.01 to 100 nM	101 to 500 nM	501 to 1000 nM	CCc1cc(C2CN(C(=O)C(F)F)C2)ncc1N(C)c1cc2c(cn1)ncn2C [Compound 333, 1-(3-{4-Ethyl-5-[methyl-(1-methyl-1H-imidazo[4,5-c]pyridin-6-yl)-amino]-pyridin-2-yl}-azetidin-1-yl)-2,2-difluoro-ethanone]
